Inconclusive results are not listed. Residues, ends and D or L forms follow the SMILES beside them. *: point of attachment. Trt = c1ccc(C(c2ccccc2)(c2ccccc2)*)cc1; Cbz = O=C(OCc1ccccc1)*; Bn = c1ccc(C*)cc1; βAla = NCCC(=O)O

Here are results for 15 compounds from PubChem BioAssay AID272 (DTP/NCI, 2004).

The experiment deals with Lewis lung carcinoma i.m., BDF1 mice, T/C %. Description: NCI In Vivo Anticancer Drug Screen. Data for tumor model Lewis Lung Carcinoma (intramuscular) in B6D2F1 (BDF1) mice. In a few lines:
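Antitumour activity is assessed in transplanted-tumour mice. Endpoint is survival or tumour size, normalised to vehicle-dosed controls (T/C).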

The mark [1] stands for this setting: endpoint: mean tumor weight (est.), dose: 6.25 mg/kg/injection, schedule: Q01DX011 (ip), vehicle: saline, higher = larger tumour.
The mark [2] stands for this setting: endpoint: median survival time, dose: 12.5 mg/kg/injection, schedule: Q01DX011 (ip), vehicle: saline, higher = longer survival.
Setting [3] is: endpoint: median survival time, dose: 6.25 mg/kg/injection, schedule: Q01DX011 (ip), vehicle: saline, higher = longer survival.

As to `Nc1nc(N)c2nc(CNc3ccc(C(=O)NC(CCC(=O)O)C(=O)O)cc3)cnc2n1` (stereo not given), the T/C by setting is: (endpoint: median survival time, dose: 4.0 micrograms/kg/injection, schedule: Q01DX011 (ip), vehicle: other, higher = longer survival) 97 % of control; (endpoint: median survival time, dose: 8.0 micrograms/kg/injection, schedule: Q01DX011 (ip), vehicle: other, higher = longer survival) 86 % of control; (endpoint: median survival time, dose: 16.0 micrograms/kg/injection, schedule: Q01DX011 (ip), vehicle: other, higher = longer survival) 100 % of control; (endpoint: median survival time, dose: 32.0 micrograms/kg/injection, schedule: Q01DX011 (ip), vehicle: other, higher = longer survival) 109 % of control; (endpoint: median survival time, dose: 65.0 micrograms/kg/injection, schedule: Q01DX011 (ip), vehicle: other, higher = longer survival) 95 % of control.

For the compound `O=C(CCl)Nc1ccc(C(=O)O)cc1`, the T/C (endpoint: median survival time, dose: 3.75 mg/kg/injection, schedule: Q01DX011 (ip), vehicle: saline with Tween-80, higher = longer survival) is 106 % of control; the T/C (endpoint: median survival time, dose: 7.5 mg/kg/injection, schedule: Q01DX011 (ip), vehicle: saline with Tween-80, higher = longer survival) is 97 % of control; the T/C (endpoint: median survival time, dose: 15.0 mg/kg/injection, schedule: Q01DX011 (ip), vehicle: saline with Tween-80, higher = longer survival) is 100 % of control.

Turning to `CN(N=O)C(N)=O`, the T/C reads like this: (endpoint: median survival time, dose: 3.12 mg/kg/injection, schedule: Q01DX015 (ip), vehicle: saline, higher = longer survival) 98 % of control; (endpoint: median survival time, dose: 6.25 mg/kg/injection, schedule: Q01DX015 (ip), vehicle: saline, higher = longer survival) 103 % of control; (endpoint: median survival time, dose: 6.25 mg/kg/injection, schedule: Q07DX003 (ip), vehicle: saline, higher = longer survival) 94 % of control; (endpoint: median survival time, dose: 12.5 mg/kg/injection, schedule: Q01DX015 (ip), vehicle: saline, higher = longer survival) 115 % of control; (endpoint: median survival time, dose: 12.5 mg/kg/injection, schedule: Q07DX003 (ip), vehicle: saline, higher = longer survival) 93 % of control; (endpoint: median survival time, dose: 25.0 mg/kg/injection, schedule: Q07DX003 (ip), vehicle: saline, higher = longer survival) 86 % of control.

In the case of `Cc1c(C(=O)O)nc(/C=C/C(=O)O)[nH]c1=O`, the T/C runs as follows: (endpoint: median survival time, dose: 4.0 mg/kg/injection, schedule: Q01DX009 (ip), vehicle: water, higher = longer survival) 105 % of control; (endpoint: median survival time, dose: 8.0 mg/kg/injection, schedule: Q01DX009 (ip), vehicle: water, higher = longer survival) 108 % of control; (endpoint: median survival time, dose: 16.0 mg/kg/injection, schedule: Q01DX009 (ip), vehicle: water, higher = longer survival) 108 % of control.

As for `CC(=O)[O][Hg][c]1s[c]([Hg][O]C(C)=O)[c]([Hg][O]C(C)=O)[c]1[Hg][O]C(C)=O`, the T/C is 45 % of control under setting [1]; 37 % of control (endpoint: mean tumor weight (est.), dose: 12.5 mg/kg/injection, schedule: Q01DX011 (ip), vehicle: saline, higher = larger tumour); 91 % of control under setting [2].

In the case of `COc1cc([C@@H]2c3cc4c(cc3C[C@H]3COC(=O)[C@@H]32)OCO4)cc(OC)c1OC`, the T/C is, setting by setting: (endpoint: mean tumor weight (est.), dose: 5.0 mg/kg/injection, schedule: Q01DX011 (ip), vehicle: saline, higher = larger tumour) 68 % of control; (endpoint: mean tumor weight (est.), dose: 10.0 mg/kg/injection, schedule: Q01DX011 (ip), vehicle: saline, higher = larger tumour) 54 % of control; (endpoint: mean tumor weight, dose: 6.25 mg/kg/injection, schedule: Q01DX011 (ip), vehicle: saline, higher = larger tumour) 100 % of control; (endpoint: mean tumor weight, dose: 12.5 mg/kg/injection, schedule: Q01DX011 (ip), vehicle: saline, higher = larger tumour) 70 % of control; under setting [3], 100 % of control; under setting [2], 87 % of control.

For the compound `O=C(C[n+]1cc(Br)cc2ccccc21)c1ccc(O)c(O)c1`, the T/C reads like this: (endpoint: mean tumor weight (est.), dose: 28.75 mg/kg/injection, schedule: Q01DX011 (ip), vehicle: saline, higher = larger tumour) 90 % of control; (endpoint: mean tumor weight (est.), dose: 57.5 mg/kg/injection, schedule: Q01DX011 (ip), vehicle: saline, higher = larger tumour) 95 % of control; (endpoint: mean tumor weight (est.), dose: 115.0 mg/kg/injection, schedule: Q01DX011 (ip), vehicle: saline, higher = larger tumour) 63 % of control; (endpoint: mean tumor weight (est.), dose: 230.0 mg/kg/injection, schedule: Q01DX011 (ip), vehicle: saline, higher = larger tumour) 52 % of control.

Take `CN1CCN(c2ccc([N+](=O)[O-])c3no[n+]([O-])c23)CC1`: the T/C (endpoint: median survival time, dose: 10.0 mg/kg/injection, schedule: Q02DX011 (ip), vehicle: saline with Tween-80, higher = longer survival) was 105 % of control and the T/C (endpoint: median survival time, dose: 20.0 mg/kg/injection, schedule: Q02DX011 (ip), vehicle: saline with Tween-80, higher = longer survival) was 94 % of control.

Turning to `Cc1c2c(cc3c1[nH]c1ccccc13)C(c1ccc(Cl)cc1)=NCC2`, the T/C was 54 % of control (endpoint: mean tumor weight (est.), dose: 75.0 mg/kg/injection, schedule: Q01DX011 (ip), vehicle: saline with Tween-80, higher = larger tumour); 41 % of control (endpoint: mean tumor weight (est.), dose: 150.0 mg/kg/injection, schedule: Q01DX011 (ip), vehicle: saline with Tween-80, higher = larger tumour); 40 % of control (endpoint: mean tumor weight (est.), dose: 300.0 mg/kg/injection, schedule: Q01DX011 (ip), vehicle: saline with Tween-80, higher = larger tumour); 100 % of control (endpoint: median survival time, dose: 75.0 mg/kg/injection, schedule: Q01DX011 (ip), vehicle: saline with Tween-80, higher = longer survival); 92 % of control (endpoint: median survival time, dose: 150.0 mg/kg/injection, schedule: Q01DX011 (ip), vehicle: saline with Tween-80, higher = longer survival); 111 % of control (endpoint: median survival time, dose: 300.0 mg/kg/injection, schedule: Q01DX011 (ip), vehicle: saline with Tween-80, higher = longer survival).

Regarding `NCC(=O)c1ccc(O)c(O)c1`, the T/C (endpoint: mean tumor weight (est.), dose: 100.0 mg/kg/injection, schedule: Q01DX011 (ip), vehicle: saline, higher = larger tumour) is 76 % of control; the T/C (endpoint: mean tumor weight (est.), dose: 200.0 mg/kg/injection, schedule: Q01DX011 (ip), vehicle: saline, higher = larger tumour) was 58 % of control; the T/C (endpoint: median survival time, dose: 200.0 mg/kg/injection, schedule: Q01DX011 (ip), vehicle: saline, higher = longer survival) is 96 % of control.

`Nc1nc(SCc2ccccc2)c2[nH]cnc2n1`: the T/C is 86 % of control (endpoint: mean tumor weight (est.), dose: 0.39 mg/kg/injection, schedule: Q01DX011 (ip), vehicle: saline, higher = larger tumour); 91 % of control (endpoint: mean tumor weight (est.), dose: 0.78 mg/kg/injection, schedule: Q01DX011 (ip), vehicle: saline, higher = larger tumour); 78 % of control (endpoint: mean tumor weight (est.), dose: 1.56 mg/kg/injection, schedule: Q01DX011 (ip), vehicle: saline, higher = larger tumour); 70 % of control under setting [1]; 105 % of control (endpoint: mean tumor weight, dose: 0.78 mg/kg/injection, schedule: Q01DX011 (ip), vehicle: Klucel (hydroxypropylcellulose) (HPC), higher = larger tumour); 92 % of control (endpoint: mean tumor weight, dose: 1.56 mg/kg/injection, schedule: Q01DX011 (ip), vehicle: Klucel (hydroxypropylcellulose) (HPC), higher = larger tumour). In addition, the T/C was 87 % of control (endpoint: mean tumor weight, dose: 3.12 mg/kg/injection, schedule: Q01DX011 (ip), vehicle: Klucel (hydroxypropylcellulose) (HPC), higher = larger tumour); 103 % of control (endpoint: median survival time, dose: 0.39 mg/kg/injection, schedule: Q01DX011 (ip), vehicle: saline, higher = longer survival); 102 % of control (endpoint: median survival time, dose: 1.56 mg/kg/injection, schedule: Q01DX011 (ip), vehicle: Klucel (hydroxypropylcellulose) (HPC), higher = longer survival); 96 % of control (endpoint: median survival time, dose: 1.56 mg/kg/injection, schedule: Q01DX011 (ip), vehicle: saline, higher = longer survival); 111 % of control under setting [3].

With `CC(=O)Nc1cc(F)c([N+](=O)[O-])cc1[N+](=O)[O-]`, the T/C was 108 % of control (endpoint: median survival time, dose: 1.25 mg/kg/injection, schedule: Q01DX011 (ip), vehicle: saline with Tween-80, higher = longer survival); 104 % of control (endpoint: median survival time, dose: 2.5 mg/kg/injection, schedule: Q01DX011 (ip), vehicle: saline with Tween-80, higher = longer survival); 95 % of control (endpoint: median survival time, dose: 5.0 mg/kg/injection, schedule: Q01DX011 (ip), vehicle: saline with Tween-80, higher = longer survival); 113 % of control (endpoint: median survival time, dose: 10.0 mg/kg/injection, schedule: Q01DX011 (ip), vehicle: saline with Tween-80, higher = longer survival).

For `COC(=O)C(CSC(c1ccccc1)(c1ccccc1)c1ccccc1)NC(=O)C(CSCc1ccccc1)NC(=O)CCNC(=O)OCc1ccccc1` (stereo not given) ({Cbz-βAla}-Cys(Bn)-Cys(Trt)-OMe; configuration not given here), the T/C (endpoint: median survival time, dose: 4.0 mg/kg/injection, schedule: Q01DX009 (ip), vehicle: Klucel (hydroxypropylcellulose) (HPC), higher = longer survival) was 121 % of control; the T/C (endpoint: median survival time, dose: 32.0 mg/kg/injection, schedule: Q01DX009 (ip), vehicle: Klucel (hydroxypropylcellulose) (HPC), higher = longer survival) was 171 % of control; the T/C (endpoint: median survival time, dose: 64.0 mg/kg/injection, schedule: Q01DX009 (ip), vehicle: Klucel (hydroxypropylcellulose) (HPC), higher = longer survival) is 161 % of control.

With `CC(C)(C)CC(C)(C)NCC(O)COc1ccc(C(C)(C)c2ccc(OCC(O)CNC(C)(C)CC(C)(C)C)cc2)cc1` (stereo not given), under “endpoint: mean tumor weight (est.), dose: 3.12 mg/kg/injection, schedule: Q01DX011 (ip), vehicle: other, higher = larger tumour”, the T/C is 68 % of control.

`COc1cc(C(=O)OC2CC34CCNC35CC(OC5(OC)C2O)c2cc3c(cc24)OCO3)ccc1O` (stereo not given): the T/C is, setting by setting: (endpoint: mean tumor weight, dose: 1.0 mg/kg/injection, schedule: Q01DX011 (ip), vehicle: carboxymethylcellulose (CMC), higher = larger tumour) 81 % of control; (endpoint: mean tumor weight, dose: 2.0 mg/kg/injection, schedule: Q01DX011 (ip), vehicle: carboxymethylcellulose (CMC), higher = larger tumour) 70 % of control; (endpoint: mean tumor weight, dose: 4.0 mg/kg/injection, schedule: Q01DX011 (ip), vehicle: carboxymethylcellulose (CMC), higher = larger tumour) 49 % of control; (endpoint: median survival time, dose: 2.0 mg/kg/injection, schedule: Q01DX011 (ip), vehicle: carboxymethylcellulose (CMC), higher = longer survival) 91 % of control; (endpoint: median survival time, dose: 4.0 mg/kg/injection, schedule: Q01DX011 (ip), vehicle: carboxymethylcellulose (CMC), higher = longer survival) 86 % of control.
